From patent US4915931A, “Tc-99m mononuclide complex compound” (Nihon Medi-Physics Co., Ltd., priority 1988, dated 1990)
Where two headings read alike, the source gives them in different places.

Columns and labels:
[1] = type: in vivo; conditions: mouse
Method: The ^99m Tc-PETS solution as obtained in Example 1 was injected into mice through the tail vein in an amount of 0.1 ml/animal. The mice were sacrificed at pre-determined times after the injection. The radioactivities and weights of various organs and blood taken from the sacrificed mice were measured, and the remaining percentages per gram of each organ were determined. The results are shown in Table 1 wherein the relative ratio of each organ to blood was also shown therein.

[2] = 7 minutes from the administration

Substance: Tc-99m-labeled pentane-2,4-dione-bis(N-methylthiosemicarbazone) complex compound [^99m Tc-PETS]
- octanol/buffer distribution ratio (n-octanol / 0.06 M phosphate buffer, pH 7.0, 37° C., 15 min): 191.3
- lipophilic property compared with ^99m Tc-KTS (octanol/buffer, pH 7): much higher than that of ^99m Tc-KTS
- distribution ratio brain/blood [1, 2]: 1.67 ratio (unitless)
- distribution ratio heart/blood [1, 2]: 2.16 ratio (unitless)
- distribution ratio pancreas/blood [1, 2]: 2.66 ratio (unitless)
- distribution to brain, heart and pancreas after administration ([1]; i.v. tail vein): rapidly distributed to brain, heart and pancreas
- Body distribution, Blood ([1]; i.v. tail vein, 0.5 min): 4.31 %/g organ
- Body distribution, Brain ([1]; i.v. tail vein, 0.5 min): 4.68 %/g organ
- Body distribution, Heart ([1]; i.v. tail vein, 0.5 min): 15.60 %/g organ
- Body distribution, Intestine ([1]; i.v. tail vein, 0.5 min): 2.60 %/g organ
- Body distribution, Kidney ([1]; i.v. tail vein, 0.5 min): 15.30 %/g organ
- Body distribution, Liver ([1]; i.v. tail vein, 0.5 min): 4.83 %/g organ
- Body distribution, Lung ([1]; i.v. tail vein, 0.5 min): 11.80 %/g organ
- Body distribution, Pancreas ([1]; i.v. tail vein, 0.5 min): 7.11 %/g organ
- Body distribution, Spleen ([1]; i.v. tail vein, 0.5 min): 2.20 %/g organ
- Body distribution, Stomach ([1]; i.v. tail vein, 0.5 min): 1.95 %/g organ
- Brain/blood ratio ([1]; i.v. tail vein, 0.5 min): 1.09
- Pancreas/blood ratio ([1]; i.v. tail vein, 0.5 min): 1.60
- heart/blood ratio ([1]; i.v. tail vein, 0.5 min): 3.52
- Body distribution, Blood ([1]; i.v. tail vein, 2 min): 3.21 %/g organ
- Body distribution, Brain ([1]; i.v. tail vein, 2 min): 4.16 %/g organ
- Body distribution, Heart ([1]; i.v. tail vein, 2 min): 6.31 %/g organ
- Body distribution, Intestine ([1]; i.v. tail vein, 2 min): 3.17 %/g organ
- Body distribution, Kidney ([1]; i.v. tail vein, 2 min): 10.90 %/g organ
- Body distribution, Liver ([1]; i.v. tail vein, 2 min): 11.70 %/g organ
- Body distribution, Lung ([1]; i.v. tail vein, 2 min): 8.18 %/g organ
- Body distribution, Pancreas ([1]; i.v. tail vein, 2 min): 7.32 %/g organ
- Body distribution, Spleen ([1]; i.v. tail vein, 2 min): 3.24 %/g organ
- Body distribution, Stomach ([1]; i.v. tail vein, 2 min): 2.66 %/g organ
- Brain/blood ratio ([1]; i.v. tail vein, 2 min): 1.30
- Pancreas/blood ratio ([1]; i.v. tail vein, 2 min): 2.29
- heart/blood ratio ([1]; i.v. tail vein, 2 min): 2.17
- Body distribution, Blood ([1]; i.v. tail vein, 5 min): 2.34 %/g organ
- Body distribution, Brain ([1]; i.v. tail vein, 5 min): 2.93 %/g organ
- Body distribution, Heart ([1]; i.v. tail vein, 5 min): 4.08 %/g organ
- Body distribution, Intestine ([1]; i.v. tail vein, 5 min): 3.65 %/g organ
- Body distribution, Kidney ([1]; i.v. tail vein, 5 min): 6.20 %/g organ
- Body distribution, Liver ([1]; i.v. tail vein, 5 min): 20.10 %/g organ
- Body distribution, Lung ([1]; i.v. tail vein, 5 min): 3.95 %/g organ
- Body distribution, Pancreas ([1]; i.v. tail vein, 5 min): 4.30 %/g organ
- Body distribution, Spleen ([1]; i.v. tail vein, 5 min): 3.72 %/g organ
- Body distribution, Stomach ([1]; i.v. tail vein, 5 min): 1.97 %/g organ
- Brain/blood ratio ([1]; i.v. tail vein, 5 min): 1.37
- Pancreas/blood ratio ([1]; i.v. tail vein, 5 min): 1.86
- heart/blood ratio ([1]; i.v. tail vein, 5 min): 1.88
- Body distribution, Blood ([1]; i.v. tail vein, 7 min): 1.21 %/g organ
- Body distribution, Brain ([1]; i.v. tail vein, 7 min): 1.85 %/g organ
- Body distribution, Heart ([1]; i.v. tail vein, 7 min): 2.41 %/g organ
- Body distribution, Intestine ([1]; i.v. tail vein, 7 min): 2.96 %/g organ
- Body distribution, Kidney ([1]; i.v. tail vein, 7 min): 5.03 %/g organ
- Body distribution, Liver ([1]; i.v. tail vein, 7 min): 19.10 %/g organ
- Body distribution, Lung ([1]; i.v. tail vein, 7 min): 2.87 %/g organ
- Body distribution, Pancreas ([1]; i.v. tail vein, 7 min): 3.18 %/g organ
- Body distribution, Spleen ([1]; i.v. tail vein, 7 min): 3.06 %/g organ
- Body distribution, Stomach ([1]; i.v. tail vein, 7 min): 1.63 %/g organ
- Brain/blood ratio ([1]; i.v. tail vein, 7 min): 1.67
- Pancreas/blood ratio ([1]; i.v. tail vein, 7 min): 2.66
- heart/blood ratio ([1]; i.v. tail vein, 7 min): 2.16
- Body distribution, Blood ([1]; i.v. tail vein, 15 min): 1.46 %/g organ
- Body distribution, Brain ([1]; i.v. tail vein, 15 min): 0.97 %/g organ
- Body distribution, Heart ([1]; i.v. tail vein, 15 min): 1.76 %/g organ
- Body distribution, Intestine ([1]; i.v. tail vein, 15 min): 4.63 %/g organ
- Body distribution, Kidney ([1]; i.v. tail vein, 15 min): 4.40 %/g organ
- Body distribution, Liver ([1]; i.v. tail vein, 15 min): 21.90 %/g organ
- Body distribution, Lung ([1]; i.v. tail vein, 15 min): 2.56 %/g organ
- Body distribution, Pancreas ([1]; i.v. tail vein, 15 min): 2.19 %/g organ
- Body distribution, Spleen ([1]; i.v. tail vein, 15 min): 1.98 %/g organ
- Body distribution, Stomach ([1]; i.v. tail vein, 15 min): 1.50 %/g organ
- Brain/blood ratio ([1]; i.v. tail vein, 15 min): 0.68
- Pancreas/blood ratio ([1]; i.v. tail vein, 15 min): 1.52
- heart/blood ratio ([1]; i.v. tail vein, 15 min): 1.21
- Body distribution, Blood ([1]; i.v. tail vein, 30 min): 3.27 %/g organ
- Body distribution, Brain ([1]; i.v. tail vein, 30 min): 0.63 %/g organ
- Body distribution, Heart ([1]; i.v. tail vein, 30 min): 2.01 %/g organ
- Body distribution, Intestine ([1]; i.v. tail vein, 30 min): 7.68 %/g organ
- Body distribution, Kidney ([1]; i.v. tail vein, 30 min): 5.06 %/g organ
- Body distribution, Liver ([1]; i.v. tail vein, 30 min): 31.70 %/g organ
- Body distribution, Lung ([1]; i.v. tail vein, 30 min): 3.20 %/g organ
- Body distribution, Pancreas ([1]; i.v. tail vein, 30 min): 2.05 %/g organ
- Body distribution, Spleen ([1]; i.v. tail vein, 30 min): 2.85 %/g organ
- Body distribution, Stomach ([1]; i.v. tail vein, 30 min): 2.31 %/g organ
- Brain/blood ratio ([1]; i.v. tail vein, 30 min): 0.19
- Pancreas/blood ratio ([1]; i.v. tail vein, 30 min): 0.69
- heart/blood ratio ([1]; i.v. tail vein, 30 min): 0.62
